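The concentration for 50% growth inhibition is given as GI50. Definition used: TGI = concentration required for complete inhibition of growth.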
Legend:
Assay in all cases: NCI anticancer screen, dose series, 384-well format
[1] = system: 786-0 renal
[2] = system: A498 renal
[3] = system: A549 NSCLC
[4] = system: ACHN renal
[5] = system: BT-549 breast
[6] = system: CAKI-1 renal
[7] = system: CCRF-CEM leukemia
[8] = system: COLO 205 colon
[9] = system: DU-145 prostate
[10] = system: HCC-2998 colon
[11] = system: HCT-116 colon
[12] = system: HCT-15 colon
[13] = system: HL-60(TB) leukemia
[14] = system: HOP-62 NSCLC
[15] = system: HOP-92 NSCLC
[16] = system: HT29 colon
[17] = system: IGROV1 ovarian
[18] = system: K-562 leukemia
[19] = system: KM12 colon
[20] = system: LOX IMVI melanoma
[21] = system: M14 melanoma
[22] = system: MALME-3M melanoma
[23] = system: MCF7 breast
[24] = system: MDA-MB-231 breast
[25] = system: MDA-MB-435 melanoma
[26] = system: MDA-MB-468 breast
[27] = system: MOLT-4 leukemia
[28] = system: NCI-H226 lung

COc1ccc([C@H](CC(=O)O)N2CCN(CCCc3ccc4c(n3)NCCC4)C2=O)cn1
GI50 [1]: 0.495 µM
TGI [1]: 24.9 µM
GI50 [2]: 0.0192 µM
TGI [2]: 1.04 µM
GI50 [3]: 7.2 µM
TGI [3]: > 100 µM
GI50 [4]: 0.516 µM
TGI [4]: 52.3 µM
GI50 [5]: 0.162 µM
TGI [5]: 0.564 µM
GI50 [6]: 0.023 µM
TGI [6]: 0.132 µM
GI50 [7]: 34.7 µM
TGI [7]: > 100 µM
GI50 [8]: 36.8 µM
TGI [8]: > 100 µM
GI50 [9]: 1.13 µM
TGI [9]: > 100 µM
GI50 [10]: 42.9 µM
TGI [10]: > 100 µM
GI50 [11]: 35.3 µM
TGI [11]: > 100 µM
GI50 [12]: 44.7 µM
TGI [12]: > 100 µM
GI50 [13]: > 100 µM
TGI [13]: > 100 µM
GI50 [14]: 1.24 µM
TGI [14]: 21.7 µM
GI50 [15]: 0.166 µM
TGI [15]: 0.933 µM
GI50 [16]: 32.5 µM
TGI [16]: > 100 µM
GI50 [17]: 0.914 µM
TGI [17]: 15.9 µM
GI50 [18]: 65.8 µM
TGI [18]: > 100 µM
GI50 [19]: 55.7 µM
TGI [19]: > 100 µM
GI50 [20]: 21.1 µM
TGI [20]: 67.1 µM
GI50 [21]: 40.6 µM
TGI [21]: > 100 µM
GI50 [22]: 25.4 µM
TGI [22]: > 100 µM
GI50 [23]: 30.6 µM
TGI [23]: > 100 µM
GI50 [24]: 1.73 µM
TGI [24]: 78.3 µM
GI50 [25]: 96.3 µM
TGI [25]: > 100 µM
GI50 [26]: 23.3 µM
TGI [26]: 68.8 µM
GI50 [27]: 21.5 µM
TGI [27]: 66.3 µM
GI50 [28]: 1.61 µM
TGI [28]: 42.6 µM

Source: PubChem BioAssay (NCI)
